# Experiments:
# Type in all cases: in vivo
# [1] = system: larvae of the mustard beetle (Phaedon cochleariae); assay: Phaedon larvae test; conditions: 1000 ppm, cabbage leaves dipped
# Procedure: (§1) Phaedon larvae Test Solvent: 30 parts by weight of dimethylformamide Emulsifier: 1 part by weight of alkylaryl polyglycol ether To produce a suitable preparation of active compound, 1 part by weight of active compound is mixed with the stated amounts of solvent and emulsifier, and the concentrate is diluted with water to the desired concentration. Cabbage leaves (Brassica oleracea) are treated by being dipped into the preparation of active compound of the desired concentration and are populated with larvae of the mustard beetle (Phaedon cochleariae) while the leaves are still moist. After the desired period of time, the kill in % is determined. 100% means that all of the beetle larvae have been killed. 0% means that none of the beetle larvae has been killed. In this test, for example, the following compounds of the Preparation Examples show good activity.
# Meloidogyne incognita [2] = assay: Meloidogyne test (Example A); conditions: 20 ppm active compound, gall formation on lettuce roots
# Procedure: (§2) Meloidogyne Test Solvent: 30 parts by weight of dimethylformamide Emulsifier: 1 part by weight of alkylaryl polyglycol ether To produce a suitable preparation of active compound, 1 part by weight of active compound is mixed with the stated amounts of solvent and emulsifier, and the concentrate is diluted with water to the desired concentration. Containers are filled with sand, solution of active compound, Meloidogyne incognita egg/larvae suspension and lettuce seeds. The lettuce seeds germinate and the plants develop. On the roots, galls are formed. After the desired period of time, the nematicidal action in % is determined using the formation of galls as a measure. 100% means that no galls have been found; 0% means that the number of galls on the treated plants corresponds to that on the untreated control.
# [3] = system: greenhouse red spider mite (Tetranychus urticae); assay: Tetranychus test (OP-resistant/dip treatment); conditions: bean plants dipped
# Procedure: Tetranychus Test (OP-Resistant/Dip Treatment)
# Solvent: 30 parts by weight of dimethylformamide
# Emulsifier: 1 part by weight of alkylaryl polyglycol ether
# (§3) To produce a suitable preparation of active compound, 1 part by weight of active compound is mixed with the stated amounts of solvent and emulsifier, and the concentrate is diluted with water to the desired concentration.
# Bean plants (Phaseolus vulgaris) which are heavily infested by all stages of the greenhouse red spider mite (Tetranychus urticae) are dipped into a preparation of active compound of the desired concentration.
# After the desired period of time, the effect in % is determined. 100% means that all of the spider mites have been killed, 0% means that none of the spider mites has been killed.
# In this test, for example, the following compounds of the Preparation Examples show good activity.
# Sphaerotheca fuliginea = assay: Sphaerotheca test (cucumber)/protective; conditions: 750 g/ha, protective, evaluation 7 days after inoculation
# Procedure: Sphaerotheca Test (Cucumber)/Protective
# Solvent: 48.8 parts by weight of N,N-dimethylformamide
# Emulsifier: 1.2 parts by weight of alkylaryl polyglycol ether
# as §3
# To test for protective activity, young cucumber plants are sprayed with the preparation of active compound at the stated application rate. 1 day after the treatment, the plants are inoculated with a spore suspension of Sphaerotheca fuliginea. The plants are then placed in a greenhouse at 70% relative atmospheric humidity and a temperature of 23° C.
# Evaluation is carried out 7 days after the inoculation. 0% means an efficacy which corresponds to that of the control, whereas an efficacy of 100% meais that no infection is observed.
# [4] = system: peach aphid (Myzus persicae); assay: Myzus test; conditions: 1000 ppm, cabbage leaves dipped
# Procedure: Myzus Test Solvent: 30 parts by weight of dimethylformamide Emulsifier: 1 part by weight of alkylaryl polyglycol ether To produce a suitable preparation of active compound, 1 part by weight of active compound is mixed with the stated amounts of solvent and emulsifier, and the concentrate is diluted with water to the desired concentration. Cabbage leaves (Brassica oleracea) which are heavily infested by the peach aphid (Myzus persicae) are treated by being dipped into a preparation of active compound of the desired concentration. After the desired period of time, the kill in % is determined. 100% means that all of the aphids have been killed: 0% means that none of the aphids has been killed. In this test, for example, the following compounds of the Preparation Examples show good activity.
# [5] = system: caterpillars of the army worm (Spodoptera frugiperda); assay: Spodoptera frugiperda test; conditions: 1000 ppm, cabbage leaves dipped
# Procedure: as §1, with “Spodoptera frugiperda” for “Phaedon larvae”, “caterpillars” for “larvae”, “army worm (Spodoptera frugiperda)” for “mustard beetle (Phaedon cochleariae)”, “caterpillars” for “beetle larvae”, “killed; 0%.” for “killed. 0%”
# Meloidogyne incognita [6] = assay: Meloidogyne test (Example G); conditions: 20 ppm; gall formation on lettuce roots
# Procedure: as §2, with “Test Solvent: 8 parts by” for “Test Solvent: 30 parts by”, “of active compound. Meloidogyne incognita” for “of active compound, Meloidogyne incognita”
# [7] = system: fruit tree red spider mite (Panonychus ulmi); assay: Panonychus test; conditions: 200 ppm, plum trees sprayed
# Procedure: Panonychus Test Solvent: 3 parts by weight of dimethylformamide Emulsifier: 1 part by weight of alkylaryl polyglycol ether To produce a suitable preparation of active compound, 1 part by weight of active compound is mixed with the stated amounts of solvent and emulsifier, and the concentrate is diluted with water to the desired concentration. Plum trees (Prunus domestica), of a height of approximately 30 cm, which are heavily infested by all stages of the fruit tree red spider mite (Panonychus ulmi) are sprayed with a preparation of active compound of the desired concentration. After the desired period of time, the effect in % is determined. 100% means that all of the spider mites have been killed: 0% means that none of the spider mites has been killed.
smiles,measurement,setting,value
Cc1cc(-c2ccc(Cl)cc2)cc(C)c1C1=C(OC(=O)C(C)C)C(C)(C)COC1=O [Ex. I-A-b-11],Kill rate in % after 7d,[1],100%
Cc1cc(-c2ccc(Cl)cc2)cc(C)c1C1=C(OC(=O)C(C)C)C(C)(C)C(C)(C)OC1=O [Ex. I-A-b-1],Kill rate in % after 14d,Meloidogyne incognita [2],100%
Cc1ccc(-c2ccc(Cl)cc2)cc1C1=C(OC(=O)OC(C)C)C(C)(C)C(C)(C)OC1=O [Ex. I-A-c-3],Kill rate in % after 7d,[1],90%
same,Kill rate in % after 7d,[3]; 0.01 ppm,100%
COC1OC(=O)C(c2ccc(Cl)cc2C)=C(OC(C)=O)C1(C)C (centres unmarked) [Ex. I-A-b-3],Efficacy in %,Sphaerotheca fuliginea,80%
Cc1ccc(-c2ccc(Cl)cc2)cc1C1=C(O)C(C)(C)COC1=O [Ex. I-a-5],Kill rate in % after 14d,Meloidogyne incognita [2],100%
same,Kill rate in % after 6d,[4],95%
same,Kill rate in % after 7d,[1],100%
Cc1cc(C)c(C2=C(OC(=O)OC(C)C)OCC(C)(C)C2=O)c(C)c1 [Ex. I-B-c-1],Kill rate in % after 14d,Meloidogyne incognita [2],90%
same,Kill rate in % after 7d,[3]; 100 ppm,100%
Cc1ccc(-c2ccc(Cl)cc2)cc1C1=C(OC(=O)C(C)C)C(C)(C)C(C)(C)OC1=O [Ex. I-A-b-10],Kill rate in % after 14d,Meloidogyne incognita [2],100%
same,Kill rate in % after 7d,[1],100%
same,Kill rate in % after 7d,[5],100%
Cc1cc(-c2ccc(Cl)cc2)cc(C)c1C1=C(O)C(C)(C)COC1=O [Ex. I-a-13],Kill rate in % after 7d,[1],100%
COC1OC(OC(C)=O)=C(c2ccc(Cl)cc2C)C(=O)C1(C)C (centres unmarked) [Ex. I-B-b-13],Efficacy in %,Sphaerotheca fuliginea,70%
Cc1cc(C)c(C2=C(OC(=O)C(C)C)OCC(C)(C)C2=O)c(C)c1 [Ex. I-B-b-17],Kill rate in % after 14d,Meloidogyne incognita [2],90%
same,Kill rate in % after 7d,[3]; 100 ppm,100%
Cc1cc(C)c(C2=C(O)C(C)(C)C(C)(C)OC2=O)c(C)c1 [Ex. I-a-7],Kill rate in % after 6d,[4],90%
same,Kill rate in % at active compound concentration in ppm,Meloidogyne incognita [6],20 ppm = 100%
Cc1cc(C)c(C2=C(OC(=O)C(C)C)OC(C)(C)C(C)(C)C2=O)c(C)c1 [Ex. I-B-b-16],Kill rate in % after 7d,[3]; 100 ppm,100%
Cc1ccc(-c2ccc(Cl)cc2)cc1C1=C(O)C(C)(C)C(C)(C)OC1=O [Ex. I-a-6],Kill rate in % after 6d,[4],95%
same,Kill rate in % after 14d,[7],100%
same,Kill rate in % after 7d,[1],100%
same,Kill rate in % after 7d,[5],100%
same,Kill rate in % after 7d,[3]; 100 ppm,100%
Cc1cc(-c2ccc(Cl)cc2)cc(C)c1C1=C(O)C(C)(C)C(C)(C)OC1=O [Ex. I-a-1],Kill rate in % after 7d,[1],100%
